# Laboratory results: patent US20260241046A1, “PROSTATE-SPECIFIC MEMBRANE ANTIGEN RECEPTOR-TARGETING RADIOPHARMACEUTICALS AND USES THEREOF” (Nuclidium AG, priority 2024, published 2026)
# Key:
# PSMA-expressing tissues = test system: PSMA-expressing tissues
# Description: The specificity of [^61Cu]Cu-NODAGA-PSMA I&T for PSMA-expressing tissues was evaluated in LNCaP xenograft mice through a blocking study. The mice were first administered with 1.3 μmol (300 μg) of 2-PMPA as a blocking agent, followed by an intravenous injection of 4-8 MBq ([…]) [^61Cu]Cu-NODAGA-PSMA I&T diluted to 100 μL in saline in the tail vein. The animals (n=4) were sacrificed 1 hour post-injection, and the organs were collected, weighed and counted in a gamma counter as already described. The results are expressed as a percentage of injected activity per gram (% IA/g) as presented in Table 27 and are compared with the results obtained from biodistribution studies.
# PET/CT imaging was also performed at 1 hour post-injection.
# LNCaP cells = assay: In vitro cellular uptake and internalization; type: cell-based, human; conditions: for Cell surface fraction / Internalised fraction / Total uptake: % of total applied activity
# Description: The cellular uptake of [^61Cu]Cu-NODAGA-PSMA I&T was studied in vitro using intact LNCaP cells seeded overnight in 6-well plates. On the day of the experiment, the cells were washed and incubated with [^61Cu]Cu-NODAGA-PSMA I&T at different time points, either alone or in the presence of 2-PMPA (10 μM) as a blocking agent, to distinguish between specific and non-specific uptake. At each investigated time point, the medium containing the unbound (free) [^61Cu]Cu-NODAGA-PSMA I&T was removed, followed by two washing steps with ice-cold phosphate-buffered saline. The cells were then treated for 2×5 min with ice-cold glycine solution (0.05 M, pH 2.8) to detach the cell surface-bound tracer (acid released). Afterwards, the cells containing the internalized [^61Cu]Cu-NODAGA-PSMA I&T were detached with 1 M sodium hydroxide at 37° C. and collected for measurement. The specific cell surface-bound and internalized tracer was expressed as a percentage of the total applied activity after subtracting the non-specific values. The results are presented in Table 23 as a mean value (n=3±standard deviation).
# LNCaP xenografted mice = assay: Biodistribution studies in LNCaP xenografted mice; type: in vivo
# Description: Unless otherwise specified, the in vivo studies were performed on athymic nude Foxn1^nu 4-6-week-old mice. Animals were injected in the shoulder with LNCaP cells (10^7 cells/200 μL) suspended in 1:1 (v: v) EMEM EBS medium and Matrigel. The in vivo experiments were performed when tumors reached a volume between 100-500 mm^3. At the intervention, all mice were between 7 and 11 weeks old. All animal experiments were performed following the guidelines for the use of living animals in scientific studies and the Swiss regulations for the protection of animals.
# Quantitative biodistribution studies were performed on LNCaP xenografted mice to determine the distribution of [^61Cu]Cu-NODAGA-PSMA I&T following i.v. injection into the tail vein. The dose of the administered radiopharmaceutical was between 1.5-3.5 MBq ([…]) diluted to 100 μL with saline solution. The mice were divided into two groups of eight (5 males and 3 females) and euthanized at 1- and 4-hours post-injection. The organs of interest were then collected, rinsed, blotted, weighed, and analyzed in a gamma counter. The results were expressed as the percentage of injected activity per gram of tissue (% IA/g) and reported as mean±standard deviation in Table 25.
# [1] = Shelf life at room temperature by reverse-phase radio-HPLC; type: physicochemical
# Description: The shelf life of [^61Cu]Cu-NODAGA-PSMA I&T was assessed at room temperature in the reaction solution and the injection formulation at various time points after EoS. At pre-defined time points (up to 12 h), an aliquot was analyzed by radio-HPLC. The radiochemical purity was determined by analytical reverse-phase radio-HPLC using a Macherey Nagel Nucleodur ISIS C18 (5 μm, 250×4.6 mm) column. The results indicated a stability of over 95% up to 12 hours (Table 22).
structure (smiles),measurement,setting,value
O=C([O-])CN1CCN(CC(=O)[O-])CCN([C@H](CCC(=O)N[C@H](Cc2ccc(O)c(I)c2)C(=O)N[C@H](Cc2ccccc2)C(=O)N[C@H](CCCCNC(=O)CCCCCCC(=O)NCCCC[C@H](NC(=O)N[C@@H](CCC(=O)O)C(=O)O)C(=O)O)C(=O)O)C(=O)O)CC1.[61Cu+2] [[^61Cu]Cu-NODAGA-PSMA I&T],"Biodistribution with 2-PMPA blocking, Adrenal",PSMA-expressing tissues; 1 hour post-injection,0.96±0.87 % IA/g
same,"Biodistribution with 2-PMPA blocking, Blood",PSMA-expressing tissues; 1 hour post-injection,0.44 ± 0.50 % IA/g
same,"Biodistribution with 2-PMPA blocking, Bone",PSMA-expressing tissues; 1 hour post-injection,0.39 ± 0.24 % IA/g
same,"Biodistribution with 2-PMPA blocking, Heart",PSMA-expressing tissues; 1 hour post-injection,0.34 ± 0.27 % IA/g
same,"Biodistribution with 2-PMPA blocking, Intestine",PSMA-expressing tissues; 1 hour post-injection,0.87 ± 0.50 % IA/g
same,"Biodistribution with 2-PMPA blocking, Kidneys",PSMA-expressing tissues; 1 hour post-injection,4.59±0.50 % IA/g
same,"Biodistribution with 2-PMPA blocking, LNCaP-tumor",PSMA-expressing tissues; 1 hour post-injection,0.68±0.54 % IA/g
same,"Biodistribution with 2-PMPA blocking, Liver",PSMA-expressing tissues; 1 hour post-injection,1.29 ± 0.53 % IA/g
same,"Biodistribution with 2-PMPA blocking, Lung",PSMA-expressing tissues; 1 hour post-injection,0.67 ± 0.40 % IA/g
same,"Biodistribution with 2-PMPA blocking, Muscle",PSMA-expressing tissues; 1 hour post-injection,0.32 ± 0.36 % IA/g
same,"Biodistribution with 2-PMPA blocking, Pancreas",PSMA-expressing tissues; 1 hour post-injection,0.29 ± 0.19 % IA/g
same,"Biodistribution with 2-PMPA blocking, Salivary glands",PSMA-expressing tissues; 1 hour post-injection,0.51 ± 0.30 % IA/g
same,"Biodistribution with 2-PMPA blocking, Spleen",PSMA-expressing tissues; 1 hour post-injection,0.33±0.16 % IA/g
same,"Biodistribution with 2-PMPA blocking, Stomach",PSMA-expressing tissues; 1 hour post-injection,0.62 ± 0.28 % IA/g
same,in vivo stability (transchelation),PSMA-expressing tissues; LNCaP xenograft mice,"stable in vivo, with limited transchelation phenomena"
same,time over which the radiotracer was continuously internalized,LNCaP cells,up to 120 minutes
same,Cell surface fraction,LNCaP cells; 5 min,4.3 ± 0.7%
same,Internalised fraction,LNCaP cells; 5 min,1.2 ± 0.2%
same,Total uptake,LNCaP cells; 5 min,5.5 ± 0.9%
same,Cell surface fraction,LNCaP cells; 15 min,8.2 ± 1.0%
same,Internalised fraction,LNCaP cells; 15 min,3.9 ± 0.4%
same,Total uptake,LNCaP cells; 15 min,12.1 ± 1.4%
same,Cell surface fraction,LNCaP cells; 30 min,10.7 ± 1.0%
same,Internalised fraction,LNCaP cells; 30 min,7.0 ± 1.1%
same,Total uptake,LNCaP cells; 30 min,17.7 ± 2.1%
same,Cell surface fraction,LNCaP cells; 60 min,10.8 ± 1.8%
same,Internalised fraction,LNCaP cells; 60 min,11.7 ± 1.6%
same,Total uptake,LNCaP cells; 60 min,22.5 ± 3.4%
same,Cell surface fraction,LNCaP cells; 120 min,10.2 ± 1.8%
same,Internalised fraction,LNCaP cells; 120 min,17.6 ± 2.8%
same,Total uptake,LNCaP cells; 120 min,27.8 ± 4.6%
same,time of highest accumulation on the cell membrane,LNCaP cells; saturation of binding sites,≤ 30 min
same,"Biodistribution, Adrenal",LNCaP xenografted mice; 1 hour post-injection,17.3±3.26 % IA/g
same,"Biodistribution, Blood",LNCaP xenografted mice; 1 hour post-injection,0.28 ± 0.06 % IA/g
same,"Biodistribution, Bone",LNCaP xenografted mice; 1 hour post-injection,2.73 ± 0.91 % IA/g
same,"Biodistribution, Heart",LNCaP xenografted mice; 1 hour post-injection,0.45 ± 0.15 % IA/g
same,"Biodistribution, Intestine",LNCaP xenografted mice; 1 hour post-injection,2.11 ± 0.78 % IA/g
same,"Biodistribution, Kidneys",LNCaP xenografted mice; 1 hour post-injection,118±13 % IA/g
same,"Biodistribution, LNCaP-tumor",LNCaP xenografted mice; 1 hour post-injection,14.0±5.0 % IA/g
same,"Biodistribution, Liver",LNCaP xenografted mice; 1 hour post-injection,1.02 ± 0.28 % IA/g
same,"Biodistribution, Lung",LNCaP xenografted mice; 1 hour post-injection,1.69 ± 0.45 % IA/g
same,"Biodistribution, Muscle",LNCaP xenografted mice; 1 hour post-injection,1.12 ± 0.32 % IA/g
same,"Biodistribution, Pancreas",LNCaP xenografted mice; 1 hour post-injection,0.97 ± 0.36 % IA/g
same,"Biodistribution, Salivary glands",LNCaP xenografted mice; 1 hour post-injection,2.01±0.33 % IA/g
same,"Biodistribution, Spleen",LNCaP xenografted mice; 1 hour post-injection,6.04±1.87 % IA/g
same,"Biodistribution, Stomach",LNCaP xenografted mice; 1 hour post-injection,1.13 ± 0.20 % IA/g
same,Tumor/Blood uptake ratio,LNCaP xenografted mice; 1 hour post-injection,50
same,Tumor/Kidney uptake ratio,LNCaP xenografted mice; 1 hour post-injection,0.12
same,Tumor/Liver uptake ratio,LNCaP xenografted mice; 1 hour post-injection,14
same,Tumor/Muscles uptake ratio,LNCaP xenografted mice; 1 hour post-injection,13
same,Tumor/Salivary gland uptake ratio,LNCaP xenografted mice; 1 hour post-injection,7
same,"Biodistribution, Adrenal",LNCaP xenografted mice; 4 hours post-injection,8.32±2.87 % IA/g
same,"Biodistribution, Blood",LNCaP xenografted mice; 4 hours post-injection,0.10±0.03 % IA/g
same,"Biodistribution, Bone",LNCaP xenografted mice; 4 hours post-injection,1.34 ± 0.48 % IA/g
same,"Biodistribution, Heart",LNCaP xenografted mice; 4 hours post-injection,0.22 ± 0.05 % IA/g
same,"Biodistribution, Intestine",LNCaP xenografted mice; 4 hours post-injection,1.06 ± 0.50 % IA/g
same,"Biodistribution, Kidneys",LNCaP xenografted mice; 4 hours post-injection,91±10 % IA/g
same,"Biodistribution, LNCaP-tumor",LNCaP xenografted mice; 4 hours post-injection,10.7±3.3 % IA/g
same,"Biodistribution, Liver",LNCaP xenografted mice; 4 hours post-injection,0.72 ± 0.11 % IA/g
same,"Biodistribution, Lung",LNCaP xenografted mice; 4 hours post-injection,0.74 ± 0.19 % IA/g
same,"Biodistribution, Muscle",LNCaP xenografted mice; 4 hours post-injection,0.50 ± 0.22 % IA/g
same,"Biodistribution, Pancreas",LNCaP xenografted mice; 4 hours post-injection,0.45 ± 0.09 % IA/g
same,"Biodistribution, Salivary glands",LNCaP xenografted mice; 4 hours post-injection,0.52±0.06 % IA/g
same,"Biodistribution, Spleen",LNCaP xenografted mice; 4 hours post-injection,1.28 ± 0.39 % IA/g
same,"Biodistribution, Stomach",LNCaP xenografted mice; 4 hours post-injection,0.66 ± 0.15 % IA/g
same,Tumor/Blood uptake ratio,LNCaP xenografted mice; 4 hours post-injection,107
same,Tumor/Kidney uptake ratio,LNCaP xenografted mice; 4 hours post-injection,0.12
same,Tumor/Liver uptake ratio,LNCaP xenografted mice; 4 hours post-injection,15
same,Tumor/Muscles uptake ratio,LNCaP xenografted mice; 4 hours post-injection,21
same,Tumor/Salivary gland uptake ratio,LNCaP xenografted mice; 4 hours post-injection,21
same,RCP by HPLC,[1]; Injection formulation,99.0 ± 0.2%
same,RCP up to 3 h (n = 3),[1]; Injection formulation,99.5 ± 0.2%
same,RCP up to 6 h (n = 3),[1]; Injection formulation,99.0 ± 0.5%
same,RCP up to 9 h (n = 3),[1]; Injection formulation,99.1 ± 0.5%
same,RCP up to 12 h (n = 2),[1]; Injection formulation,99.7 ± 0.41%
same,RCP by HPLC,[1]; Reaction solution,99.4 ± 0.4%
same,RCP up to 3 h (n = 3),[1]; Reaction solution,99.6 ± 0.2%
same,RCP up to 6 h (n = 3),[1]; Reaction solution,99.5 ± 0.7%
same,RCP up to 9 h (n = 3),[1]; Reaction solution,99.1 ± 0.8%
same,RCP up to 12 h (n = 2),[1]; Reaction solution,99.7 ± 0.1%
same,stability,[1]; up to 12 hours,over 95%
